Paper PMC11010885, “Functional Analysis and Tissue-Specific Expression of Calcitonin and CGRP with RAMP-Modulated Receptors CTR and CLR in Chickens” (Animals : an Open Access Journal from MDPI, 2024)

Experiments:
Assay type in all cases: cell-based
chicken CLR + RAMP2 = assay: Calcium pGL3-NFAT-RE-luciferase reporter assay, CLR + RAMP2 in CHO cells
Protocol: (§1) Chinese hamster ovary (CHO) cells were cultured in Dulbecco’s modified Eagle’s medium (DMEM) supplemented with 10% (vol/vol) fetal bovine serum (HyClone, Logan, UT, USA), 100 U/mL penicillin G and 100 μg/mL streptomycin. The cells were maintained in a 90 mm culture dish (Nunc, Rochester, NY, USA) and incubated at 37 °C with 5% CO2. To investigate the signaling pathways associated with each receptor in CHO cells, three different reporter systems (pGL3-CRE-luciferase, pGL4-SRE-luciferase, and pGL3-NFAT-RE-luciferase) were utilized to monitor intracellular cAMP/PKA and MAPK/ERK signaling pathways and calcium mobilization of the activated receptors, respectively.
(§2) Prior to the transfection procedure, the cells were initially cultured in 6-well plates (Nunc, Rochester, NY, USA), maintaining a seeding density of approximately 300,000 cells per well. Upon achieving approximately 70% confluence, the cells underwent a co-transfection process. This procedure entailed the introduction of 700 ng of various luciferase reporter constructs (namely, pGL3-CRE-luciferase, pGL4-SRE-luciferase, or pGL3-NFAT-RE-luciferase) combined with 200 ng of a specific receptor plasmid (CTR or CLR) and 1000 ng of either RAMP1, RAMP2, RAMP3 expression plasmids, or alternatively, the empty pcDNA3.1 (+) vector. A volume of 5.7 μL of PEI MAX was used in 200 μL of buffer following the manufacturer’s protocol. After 24 h of incubation, the transfected CHO cells were subcultured in 96-well plates and passaged for an additional 24 h before peptide treatment. Then, the medium from the 96-well plates was removed, and the cells were treated with chicken CT/CGRP-containing medium (or untreated medium as a control) at concentrations ranging from 10^−12 M to 10^−6 M for 6 h. […] The fluorescence activity of the luciferase in each treatment group was measured using a multimode microplate reader (TriStar LB941, Berthold Technologies, Bad Wildbad, Germany). Finally, the fluorescence activity of each treatment group was expressed as a relative increase ratio compared to the control group.

chicken CTR + RAMP2 = assay: Calcium pGL3-NFAT-RE-luciferase reporter assay, CTR + RAMP2 in CHO cells
Protocol: as §1, §2

chicken CTR [1] = assay: Calcium pGL3-NFAT-RE-luciferase reporter assay, CTR + pcDNA in CHO cells; settings: 10^−12 M to 10^−6 M, 6 h, mean ± SEM, n = 3, read-out: EC50, calcium signaling pathway
Protocol: as §1
(§3) Prior to the transfection procedure, the cells were initially cultured in 6-well plates (Nunc, Rochester, NY, USA), maintaining a seeding density of approximately 300,000 cells per well. Upon achieving approximately 70% confluence, the cells underwent a co-transfection process. […] The fluorescence activity of the luciferase in each treatment group was measured using a multimode microplate reader (TriStar LB941, Berthold Technologies, Bad Wildbad, Germany). Finally, the fluorescence activity of each treatment group was expressed as a relative increase ratio compared to the control group.

chicken CTR + RAMPs = assay: Western blot CREB phosphorylation, CTR + RAMPs in CHO cells; settings: 10 nM, 10 min, n = 3
Protocol: (§4) To assess whether the activation of chicken CTR and CLR, along with the presence of RAMPs, can augment the phosphorylation levels of cAMP response element-binding protein (CREB), 200 ng of CTR or CLR expression plasmids were combined with 1000 ng of chicken RAMPs or an empty pcDNA3.1 (+) vector in a 100 μL buffer. The resulting mixture was then transfected into CHO cells in a 12-well plate (Nunc, Rochester, NY, USA) using 3.6 μL of PEI MAX transfection reagent. After a 24 h incubation period, the cells were exposed to chicken CT (10 nM) or CGRP (10 nM) for 10 min. Subsequently, the culture medium was removed, and the cells were lysed according to the manufacturer’s instructions. Western blot analysis was performed to quantify the levels of CREB and phosphorylated CREB (p-CREB). The optical densities were analyzed and normalized using the software, ImageJ 1.52a (National Institutes of Health, Bethesda, MD, USA). The relative expression of p-CREB/CREB was determined by calculating the ratio of the optical density to that of the control without peptide treatment (0 min).

chicken CLR + RAMP3 [2] = assay: Calcium pGL3-NFAT-RE-luciferase reporter assay, CLR + RAMP3 in CHO cells; settings: 10^−12 M to 10^−6 M, 6 h, mean ± SEM, n = 3, read-out: EC50, calcium signaling pathway
Protocol: as §1, §3

[3] = test system: chicken CLR in the absence or presence of RAMPs; assay: cAMP/PKA pGL3-CRE-luciferase reporter assay, CLR without and with RAMPs compared
Protocol: as §1
(§5) Prior to the transfection procedure, the cells were initially cultured in 6-well plates (Nunc, Rochester, NY, USA), maintaining a seeding density of approximately 300,000 cells per well. Upon achieving approximately 70% confluence, the cells underwent a co-transfection process. This procedure entailed the introduction of 700 ng of various luciferase reporter constructs (namely, pGL3-CRE-luciferase, pGL4-SRE-luciferase, or pGL3-NFAT-RE-luciferase) combined with 200 ng of a specific receptor plasmid (CTR or CLR) and 1000 ng of either RAMP1, RAMP2, RAMP3 expression plasmids, or alternatively, the empty pcDNA3.1 (+) vector. A volume of 5.7 μL of PEI MAX was used in 200 μL of buffer following the manufacturer’s protocol. After 24 h of incubation, the transfected CHO cells were subcultured in 96-well plates and passaged for an additional 24 h before peptide treatment. Then, the medium from the 96-well plates was removed, and the cells were treated with chicken CT/CGRP-containing medium (or untreated medium as a control) at concentrations ranging from 10^−12 M to 10^−6 M for 6 h. Subsequently, the cells were harvested for luciferase assays by lysing them in 1 × passive lysis buffer. To measure the luciferase activity of the cell lysate, 40 μL of luciferase assay reagent (Promega, Madison, WI, USA) was mixed with the cell lysate following the manufacturer’s instructions. The fluorescence activity of the luciferase in each treatment group was measured using a multimode microplate reader (TriStar LB941, Berthold Technologies, Bad Wildbad, Germany). Finally, the fluorescence activity of each treatment group was expressed as a relative increase ratio compared to the control group.

chicken CTR + RAMP1 = assay: cAMP/PKA pGL3-CRE-luciferase reporter assay, CTR + RAMP1 in CHO cells; settings: 10^−12 M to 10^−6 M, 6 h, mean ± SEM, n = 3, read-out: EC50, cAMP/PKA signaling pathway
Protocol: as §1, §3

chicken CTR [4] = assay: cAMP/PKA pGL3-CRE-luciferase reporter assay, CTR + pcDNA in CHO cells
Protocol: as §1, §5

chicken CLR + RAMP1 = assay: MAPK/ERK pGL4-SRE-luciferase reporter assay, CLR + RAMP1 in CHO cells; settings: 10^−12 M to 10^−6 M, 6 h, mean ± SEM, n = 3, read-out: EC50, MAPK/ERK signaling pathway
Protocol: as §1, §3

chicken CTR + RAMP3 = assay: cAMP/PKA pGL3-CRE-luciferase reporter assay, CTR + RAMP3 in CHO cells; settings: 10^−12 M to 10^−6 M, 6 h, mean ± SEM, n = 3, read-out: EC50, cAMP/PKA signaling pathway
Protocol: as §1, §3

chicken CTR [5] = assay: MAPK/ERK pGL4-SRE-luciferase reporter assay, CTR + pcDNA in CHO cells; settings: 10^−12 M to 10^−6 M, 6 h, mean ± SEM, n = 3, read-out: EC50, MAPK/ERK signaling pathway
Protocol: as §1, §3

chicken CTR [6] = assay: Western blot CREB phosphorylation, CTR in CHO cells; settings: 10 nM, 10 min, n = 3
Protocol: as §4

chicken CLR + RAMP3 [7] = assay: MAPK/ERK pGL4-SRE-luciferase reporter assay, CLR + RAMP3 in CHO cells; settings: 10^−12 M to 10^−6 M, 6 h, mean ± SEM, n = 3, read-out: EC50, MAPK/ERK signaling pathway
Protocol: as §1, §3

With calcitonin [CT] the EC50 (chicken CLR + RAMP2; CLR + RAMP2, CHO cells, pGL3-NFAT-RE-luciferase, 10^−12 M to 10^−6 M, 6 h, mean ± SEM, n = 3, read-out: EC50, calcium signaling pathway) was 1520 ± 1320 pM, the “elevation in luciferase activity, calcium signaling” value (chicken CLR + RAMP2; CLR + RAMP2, pGL3-NFAT-RE-luciferase, CHO cells) was “modest elevation in luciferase activity” and the EC50 (chicken CTR + RAMP2; CTR + RAMP2, CHO cells, pGL3-NFAT-RE-luciferase, 10^−12 M to 10^−6 M, 6 h, mean ± SEM, n = 3, read-out: EC50, calcium signaling pathway) was 2500 ± 1810 pM. For the same substance, the “elevation in luciferase activity, calcium signaling” value (chicken CTR + RAMP2; CTR + RAMP2, pGL3-NFAT-RE-luciferase, CHO cells) was “modest elevation in luciferase activity”, the EC50 (chicken CTR [1]) was 61100 ± 8550 pM and the “CREB phosphorylation (p-CREB/CREB vs. control, 0 min)” value (chicken CTR + RAMPs) was “significantly increased the CREB phosphorylation”. For the same substance, the EC50 (chicken CLR + RAMP3 [2]) was 32300 ± 30300 pM, the “effect of RAMP co-expression on sensitivity of CLR” value ([3]; CHO cells, pGL3-CRE-luciferase) was “a slight reduction in chicken CLR’s sensitivity to CT in the presence of RAMP1” and the “rank order of receptor sensitivity” value ([3]; CLR without/with RAMPs) was “CLR ≈ CLR + RAMP2 ≈ CLR + RAMP3 > CLR + RAMP1”. For the same substance, the EC50 ([3]; CLR without/with RAMPs, read-out: EC50 range over CLR, CLR + RAMP2, CLR + RAMP3, CLR + RAMP1) was 750 to 3300 pM, the EC50 (chicken CTR + RAMP1) was 770 ± 70 pM and the EC50 (chicken CTR [4]; CTR + pcDNA, CHO cells, pGL3-CRE-luciferase, 10^−12 M to 10^−6 M, 6 h, mean ± SEM, n = 3, read-out: EC50, cAMP/PKA signaling pathway) was 150 ± 40 pM. The “activation (cAMP production), in words” value (chicken CTR [4]; independent CTR) was “strongly activates”, the EC50 (chicken CLR + RAMP1) was 890 ± 200 pM and the EC50 (chicken CTR + RAMP3) was 440 ± 100 pM. For the same substance, the EC50 (chicken CTR [5]) was 150 ± 50 pM, the “CREB phosphorylation (p-CREB/CREB vs. control, 0 min)” value (chicken CTR [6]) was “significantly increased the CREB phosphorylation” and the EC50 (chicken CLR + RAMP3 [7]) was 1000 ± 450 pM.
